Tests used:
[1] = Stability in simulated intestinal fluid; format: in vitro ADME; details: 100 μM, 2 hours at 37° C., percent of the peak area at time zero
In short: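 Compounds at 100 μM final, in duplicate, kept 2 h at 37° C in USP gastric fluid (pepsin) or intestinal fluid (pancreatin). Quenched with cold acetonitrile, supernatant analysed by C-18 HPLC, UV 252 nm. Remaining compound expressed as percent of time-zero peak area.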

[2] = Stability in fresh human whole blood; format: in vitro ADME; details: 0.5 μM, percent unchanged test compound
In short: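 Test compound at 0.5 μM was incubated at 37 °C in fresh human K2EDTA whole blood, stored at 2–8 °C and used within 7 days, in triplicate. Samples taken at 0, 0.5, 1 and 2 h were quenched in cold acetonitrile containing internal standard and analysed by LC-MS/MS. Percent unchanged compound was derived from peak-area ratios.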

fresh human hepatocytes = assay: Release of active metabolite in fresh human hepatocytes; format: in vitro ADME; details: 10 μM compound
In short: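 Overnight-acclimatized hepatocytes (0.8 million cells/well human, 0.5 million mouse) incubated at 37 °C with 10 μM test compound (0.1% DMSO). Sampled at 6, 24, 48 h (human) or 1, 4, 8, 12, 24 h (mouse); cells washed, extracted in cold 70% methanol, intracellular content quantified by LC-MS/MS with internal standard.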

[3] = Liver pharmacokinetics following a single oral dose in CD-1 mice; format: in vivo; details: single oral dose 25 mg/kg in PEG 200, CD-1 male mice; given at 1 μmol/kg
In short: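 Male CD-1 mice given 25 mg/kg test compound orally in PEG 200; liver snap-frozen in situ at 4, 12 and 24 h (3 per time). Liver 2′-MeGTP measured after TCA homogenization and anion-exchange SPE by LC-MS/MS, calibration 50–50000 pmol/g liver.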

in vitro = details: human, HCV Replicon CC50, Zluc cells, CellTiter-Blue

## CCOc1nc(N)nc2c1ncn2[C@@H]1O[C@@H]2COP(=O)(OCCCC(=O)OC(C)C)O[C@H]2[C@@]1(C)F (single isomer, unassigned) [Compound 20 Diastereomer 1]
[1]
  Stability SIF: 95%
[2]
  Stability WB_Human (37° C.; 2 hr): 98%
Fresh human hepatocytes; fresh human hepatocytes
  FHH TP Cmax: 88 pmol/mill cells
Fresh human hepatocytes; fresh human hepatocytes, 6, 24 and 48 hours
  FHH TP AUC: 2393 pmol · hr/mill cells
[3]
  Ms Liver 2′-MeGTP AUC: 410 pmol · hr/g at 1 μmol/kg
In vitro
  CC50: > 50 µM
